Source: patent publication US11332463B2, “Spiropiperidine allosteric modulators of nicotinic acetylcholine receptors” (Merck Sharp & Dohme Corp., priority 2018, dated 2022)
Read-outs that look alike come from different tables or passages of the source.

Molecular target: T1, human α7 nicotinic acetylcholine receptor (HEK cell line stably expressing human RIC-3 and human α7) (Homo sapiens, UniProt P36544)
T1 construct: host or cells: HEK cell line (PrecisION hnAChR α7/RIC-3)
Assay: Automated patch-clamp electrophysiology functional assay (Assay A), IonFlux HT, whole-cell population patch
Format: cell-based

[1] = HEK cells expressing human α7/RIC-3, test compound with or without 40 μM acetylcholine, holding potential −60 mV, room temperature, read-out: α7 nAChR Potency
[2] = automated patch-clamp electrophysiology functional assay (Assay A), read-out: α7 nAChR EC50

T1 sequence (P36544 23-502): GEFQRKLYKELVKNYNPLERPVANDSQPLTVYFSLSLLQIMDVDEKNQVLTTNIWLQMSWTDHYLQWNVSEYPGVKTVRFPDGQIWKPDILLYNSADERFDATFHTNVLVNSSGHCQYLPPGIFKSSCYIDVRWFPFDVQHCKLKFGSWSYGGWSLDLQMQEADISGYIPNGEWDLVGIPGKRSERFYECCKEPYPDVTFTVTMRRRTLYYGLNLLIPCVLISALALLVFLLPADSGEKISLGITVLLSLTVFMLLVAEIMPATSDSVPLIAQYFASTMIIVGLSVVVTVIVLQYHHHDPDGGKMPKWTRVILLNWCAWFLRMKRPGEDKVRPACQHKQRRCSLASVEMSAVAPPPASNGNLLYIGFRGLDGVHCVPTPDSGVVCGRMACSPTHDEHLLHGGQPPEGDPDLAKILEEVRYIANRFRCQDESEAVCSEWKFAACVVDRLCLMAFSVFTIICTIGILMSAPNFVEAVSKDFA

Question: What does the source list for `NS(=O)(=O)N1CCC2(CC1)[C@H](c1noc(-c3ccnc(OC4CC4)c3)n1)C2(F)F` [Example E33]?
Answer: EC50 [1]: 100 to 500 nM; EC50 [2]: 470 nM

Question: Which results are given for `NS(=O)(=O)N1CCC2(CC1)[C@H](c1noc(-c3ccnn3C3CC3)n1)C2(F)F` [Example E34]?
Answer: EC50 [1]: 100 to 500 nM; EC50 [2]: 130 nM

Question: How did the EC50 [1] turn out when `CC(C)(C)n1nccc1-c1nc([C@@H]2C(F)(F)C23CCN(S(N)(=O)=O)CC3)no1` [Example E35] was run?
Answer: 100 to 500 nM

Question: What about the EC50 [2] of the same compound?
Answer: 250 nM

Question: Which EC50 [1] does the source give for `Cc1cnc2cc(-c3nc([C@@H]4C(F)(F)C45CCN(S(N)(=O)=O)CC5)no3)ccn12` [Example E36] here?
Answer: 500 to 5000 nM

Question: What about the EC50 [2] of the same compound?
Answer: 1100 nM

Question: For `CCn1cc(-c2nc([C@@H]3C(F)(F)C34CCN(S(N)(=O)=O)CC4)no2)c(C2CC2)n1` [Example E37], which EC50 [1] is on record?
Answer: < 100 nM

Question: And the EC50 [2]?
Answer: 78 nM

Question: For `Cn1ncc(-c2nc([C@@H]3C(F)(F)C34CCN(S(N)(=O)=O)CC4)no2)c1C(F)(F)F` [Example E38], which EC50 [1] is on record?
Answer: 100 to 500 nM

Question: And the EC50 [2]?
Answer: 270 nM

Question: `CC(C)(C)n1ncc(-c2nc([C@@H]3C(F)(F)C34CCN(S(N)(=O)=O)CC4)no2)c1C(F)(F)F` [Example E39] was tested. Which EC50 [1] did it give?
Answer: 100 to 500 nM

Question: And the EC50 [2]?
Answer: 150 nM

Question: Which EC50 [1] does the source give for `NS(=O)(=O)N1CCC2(CC1)[C@H](c1noc(-c3cnn4c3CCCC4)n1)C2(F)F` [Example E40] here?
Answer: 500 to 5000 nM

Question: What about the EC50 [2] of the same compound?
Answer: 840 nM

Question: With `Cc1n[nH]c(C2CC2)c1-c1nc([C@@H]2C(F)(F)C23CCN(S(N)(=O)=O)CC3)no1` [Example E41] as the compound, how does the EC50 [1] read?
Answer: < 100 nM

Question: And the EC50 [2]?
Answer: 15 nM

Question: Which results are given for `NS(=O)(=O)N1CCC2(CC1)[C@H](c1noc(-c3cnn4c3CCC4)n1)C2(F)F` [Example E42]?
Answer: EC50 [1]: 500 to 5000 nM; EC50 [2]: 1100 nM

Question: Which results are given for `Cn1nccc1-c1nc([C@@H]2C(F)(F)C23CCN(S(N)(=O)=O)CC3)no1` [Example E43]?
Answer: EC50 [1]: 100 to 500 nM; EC50 [2]: 500 nM

Question: With `Cn1nc(-c2nc([C@@H]3C(F)(F)C34CCN(S(N)(=O)=O)CC4)no2)c2c1CCC2` [Example E44] as the compound, how does the EC50 [1] read?
Answer: 100 to 500 nM

Question: Which results are given for `Cn1nc(C(F)(F)F)cc1-c1nc([C@@H]2C(F)(F)C23CCN(S(N)(=O)=O)CC3)no1` [Example E45]?
Answer: EC50 [1]: 500 to 5000 nM; EC50 [2]: 550 nM

Question: Which EC50 [1] does the source give for `NS(=O)(=O)N1CCC2(CC1)[C@H](c1noc(-c3cc(C(F)(F)F)n(C4CC4)n3)n1)C2(F)F` [Example E46] here?
Answer: 500 to 5000 nM

Question: And the EC50 [2]?
Answer: 510 nM

Question: How did the EC50 [1] turn out when `NS(=O)(=O)N1CCC2(CC1)[C@H](c1noc(-c3c4c(nn3C3CC3)CCCC4)n1)C2(F)F` [Example E47] was run?
Answer: 100 to 500 nM

Question: Which results are given for `NS(=O)(=O)N1CCC2(CC1)[C@H](c1noc(-c3c(C(F)(F)F)cnn3C3CC3)n1)C2(F)F` [Example E48]?
Answer: EC50 [1]: < 100 nM; EC50 [2]: 60 nM

Question: For `NS(=O)(=O)N1CCC2(CC1)[C@H](c1noc(-c3ccnnc3C3CC3)n1)C2(F)F` [Example E49], which EC50 [1] is on record?
Answer: 100 to 500 nM

Question: And the EC50 [2]?
Answer: 270 nM

Question: For `NS(=O)(=O)N1CCC2(CC1)C[C@H]2c1noc(-c2ccnnc2C2CC2)n1` [Example E50], which EC50 [1] is on record?
Answer: 500 to 5000 nM

Question: And the EC50 [2]?
Answer: 1400 nM

Question: Which results are given for `CC(C)Oc1cc(-c2nc([C@@H]3C(F)(F)C34CCN(S(N)(=O)=O)CC4)no2)ccn1` [Example E51]?
Answer: EC50 [1]: 500 to 5000 nM; EC50 [2]: 530 nM

Question: For `Cc1cnn(C)c1-c1nc([C@@H]2CC23CCN(S(N)(=O)=O)CC3)no1` [Example E52], which EC50 [1] is on record?
Answer: 500 to 5000 nM

Question: What about the EC50 [2] of the same compound?
Answer: 1700 nM

Question: What does the source list for `NS(=O)(=O)N1CCC2(CC1)[C@H](c1noc(-c3cnn4c3CSC4)n1)C2(F)F` [Example E53]?
Answer: EC50 [1]: 500 to 5000 nM; EC50 [2]: 1200 nM

Question: For `Cc1c(-c2nc([C@@H]3C(F)(F)C34CCN(S(N)(=O)=O)CC4)no2)c(C(F)(F)F)nn1C1CC1` [Example E54], which EC50 [1] is on record?
Answer: 100 to 500 nM

Question: What about the EC50 [2] of the same compound?
Answer: 500 nM

Question: Which results are given for `NS(=O)(=O)N1CCC2(CC1)[C@H](c1noc(-c3c(C4CC4)noc3C(F)(F)F)n1)C2(F)F` [Example E55]?
Answer: EC50 [1]: < 100 nM; EC50 [2]: 30 nM

Question: Which EC50 [1] does the source give for `NS(=O)(=O)N1CCC2(CC1)[C@H](c1noc(-c3cccnc3)n1)C2(F)F` [Example E56] here?
Answer: 500 to 5000 nM

Question: What about the EC50 [2] of the same compound?
Answer: 2600 nM

Question: With `NS(=O)(=O)N1CCC2(CC1)C[C@H]2c1noc(-c2cnccc2C(F)(F)F)n1` [Example E57] as the compound, how does the EC50 [1] read?
Answer: 500 to 5000 nM

Question: How did the EC50 [1] turn out when `NS(=O)(=O)N1CCC2(CC1)C[C@H]2c1noc(-c2cccnc2C(F)(F)F)n1` [Example E58] was run?
Answer: 500 to 5000 nM

Question: What about the EC50 [2] of the same compound?
Answer: 3400 nM
